Source: ChEMBL document CHEMBL1201862, “PubChem BioAssay data set” (2004)
Where “and” joins values, the source holds several entries; their conditions need not be identical. Equal entries are not always repeated.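 96-well plates; 48 h exposure; 5 concentrations. Endpoints by linear interpolation between flanking doses. Not reached: highest tested concentration assigned. GI50 = concentration required for 50% inhibition of growth.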 Calls of active or inactive are those of the source. Rule as the data show it: active = GI50 up to about 1.1 µM and inactive = higher. Starred links: 1 amine or outer side, 2 acyl side, 3 side chain; linkers in the order of their positions; H or OH if unused. Positions of bridges follow the written chain, without caps; N, C: chain ends. Non-standard residues stand in square brackets, D forms with d. Residues, ends and D or L forms follow the SMILES beside them. Chains are numbered I, II in the order given. Actinocin(9to1) = Cc1c2oc3c(C)ccc(C(=O)[*:1])c3nc-2c(C(=O)[*:2])c(N)c1=O; NMeF = CN[CH](Cc1ccccc1)C(=O)O; Sar = CNCC(=O)O

What was measured:
Test in all cases: DTP human tumour cell line panel, 48 h
[1] = tested on: HT-29
[2] = tested on: SNB-75
[3] = tested on: HCT-15
[4] = tested on: CAKI-1
[5] = tested on: HCC 2998
[6] = tested on: SK-MEL-5
[7] = tested on: EKVX
[8] = tested on: ACHN
[9] = tested on: SF-295
[10] = tested on: MDA-MB-231
[11] = tested on: 786-0
[12] = tested on: NCI/ADR-RES
[13] = tested on: MDA-MB-435
[14] = tested on: OVCAR-5
[15] = tested on: UACC-257
[16] = tested on: RXF 393
[17] = tested on: Malme-3M
[18] = tested on: MOLT-4
[19] = tested on: M14
[20] = tested on: T47D
[21] = tested on: U-251
[22] = tested on: HL-60
[23] = tested on: MCF7
[24] = tested on: HOP-92
[25] = tested on: RPMI-8226
[26] = tested on: PC-3
[27] = tested on: K562
[28] = tested on: NCI-H460
[29] = tested on: SNB-19
[30] = tested on: LOX IMVI
[31] = tested on: NCI-H23
[32] = tested on: A549
[33] = tested on: UO-31
[34] = tested on: OVCAR-4
[35] = tested on: SK-MEL-28
[36] = tested on: COLO 205
[37] = tested on: IGROV-1
[38] = tested on: SK-OV-3
[39] = tested on: SR
[40] = tested on: OVCAR-8
[41] = tested on: SK-MEL-2
[42] = tested on: SF-268
[43] = tested on: BT-549
[44] = tested on: Hs-578T
[45] = tested on: SW-620
[46] = tested on: KM12
[47] = tested on: NCI-H226
[48] = tested on: MDA-N
[49] = tested on: NCI-H522
[50] = tested on: TK-10
[51] = tested on: A498
[52] = tested on: DU-145
[53] = tested on: SF-539
[54] = tested on: OVCAR-3
[55] = tested on: HOP-62

Measured: GI50

COC(=O)c1cc(C#Cc2cc(OC)ccc2OC)ccc1OC
40.3 µM: [3]
inactive: [1] 38.5 µM | [2] 33.8 µM | [4] 60 µM | [5] > 100 µM | [6] 24.4 µM | [7] 40.9 µM | [8] 42.7 µM | [10] > 100 µM | [11] 51.3 µM | [12] 47.5 µM | [13] 41.3 µM | [14] > 100 µM | [15] 37.2 µM | [16] 21.3 µM | [17] 44.3 µM | [18] 19.3 µM | [19] 34.8 µM | [20] 2.04 µM | [21] 95.1 µM | [22] 31.1 µM | [23] 36.5 µM | [24] 22.9 µM | [25] 13.9 µM | [26] 40.7 µM | [28] 56.8 µM | [29] > 100 µM | [30] 32.1 µM | [31] 41.4 µM | [32] 34.8 µM | [33] 40.1 µM | [34] 46.7 µM | [35] > 100 µM | [36] 24.5 µM | [37] 53.2 µM | [38] 45.4 µM | [39] 26.8 µM | [40] 37.1 µM | [41] 43.5 µM | [42] 75.7 µM | [43] 37.7 µM | [44] > 100 µM | [45] > 100 µM | [46] 43.9 µM | [47] 67 µM | [48] 30.3 µM | [49] 37.8 µM | [50] 54.6 µM
active: [9] < 10 nM | [27] < 0.01 µM

Cc1c2oc3c(C)ccc(C(=O)NC4C(=O)NC(C(C)C)C(=O)N5CCCC5C(=O)N(C)CC(=O)N(C)C(Cc5ccccc5)C(=O)OC4C)c3nc-2c(C(=O)NC2C(=O)NC(C(C)C)C(=O)N3CCCC3C(=O)N(C)CC(=O)N(C)C(Cc3ccccc3)C(=O)OC2C)c(N)c1=O (configuration not stated) (I: TVP[Sar][NMeF] / II: TVP[Sar][NMeF]; ester I:1-I:C, II:1-II:C; linker I:N-II:N via Actinocin(9to1); configuration not given here)
active: [51] 0.0108 µM | [2] < 10 nM and 7.11 nM | [4] < 10 nM and 17.3 nM | [5] 0.00887 µM | [6] < 10 nM and 6 nM | [52] 0.00807 µM | [8] 0.00989 µM | [9] < 10 nM and 10.8 nM | [53] < 10 nM and 5.64 nM | [13] < 10 nM and 6.21 nM | [15] < 10 nM and 12.8 nM | [16] < 10 nM and 12.5 nM | [17] < 10 nM and 6.65 nM | [19] < 10 nM and 19.6 nM | [20] 0.00521 µM | [24] < 10 nM and 14.9 nM | [25] < 10 nM and 9.95 nM | [26] 0.0112 µM | [31] < 10 nM and < 11.1 nM | [34] < 10 nM and 6.64 nM | [35] < 10 nM and 7.33 nM | [38] 0.0157 µM | [54] < 10 nM and 12.9 nM | [40] 0.0127 µM | [41] 0.00957 µM | [42] < 10 nM and 9.29 nM | [43] 0.0189 µM | [55] < 10 nM and 9.31 nM | [44] < 10 nM and 7.24 nM | [45] < 10 nM and 6.17 nM | [46] 0.00504 µM | [47] < 10 nM and 16.5 nM
